{
  "source": "paper PMC2668073",
  "about": "“N- and C-Terminal Domains of the Calcium Binding Protein EhCaBP1 of the Parasite Entamoeba histolytica Display Distinct Functions” (PLoS ONE, 2009)",
  "target": "T1, EhCaBP1 (Entamoeba histolytica, UniProt P38505)",
  "T1 construct": "gene CaBP1; trimer, Phe site between EF1 and EF2 of neighbouring molecules; C-terminal half without density; strain printed for amoeba culture only",
  "T1 sequence (P38505 whole entry)": "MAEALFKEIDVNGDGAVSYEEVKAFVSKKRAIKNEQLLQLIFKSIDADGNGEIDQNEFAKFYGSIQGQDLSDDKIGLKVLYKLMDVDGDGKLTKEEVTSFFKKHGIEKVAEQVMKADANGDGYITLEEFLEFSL",
  "assay": "X-ray crystal structure of the complex (co-crystallisation)",
  "assay_type": "binding",
  "details": "2 mM phenylalanine, 10 mM CaCl2 in protein solution; crystals from 63-65% MPD, 5 mM CaCl2, 50 mM acetate pH 4, 16 °C; hydrophobic pocket between EF1 and EF2 of adjacent molecules",
  "data": [
    {"smiles": "N[C@@H](Cc1ccccc1)C(=O)O", "note": "[Phenylalanine]", "values": [
      {"measurement": "X-ray crystal structure of the complex (co-crystallisation)", "result": "hydrophobic pocket formed at the interface between EF1 and EF2 in the assembled domain"}
    ]}
  ]
}
